The results in this text go back to US5036072A, “Antiviral agent” (Ishihara Sangyo Kaisha Ltd., priority 1989, dated 1991).

By inhibition is commonly meant the relative decrease from the control value, in per cent. Higher therefore signals a response far below the control.

The structures appear in SMILES notation.

Assay [1] concerns reverse transcriptase derived from bird's myeloblastosis virus. Kind of assay: inhibition of the reverse transcriptase activities. To be noted: 37° C. for 60 minutes, [3H]-TTP incorporation. Type of assay: biochemical. On the procedure:
Now, the effects of the antiviral agent of the present invention for inhibition of the reverse transcriptase activities will be shown.
The test solution comprised magnesium chloride (5 mM), DTT (5 mM), sodium chloride (60 mM), [^3 H]-TTP (0.2 mM), poly(λA) (10 μg/ml), Oligo (dT) (0.04 U/ml), reverse transcriptase derived from bird's myeloblastosis virus (3 U/ml) and Tris hydrochloric acid (pH 8.0). Compound 3 was dissolved in cyclodextrin to obtain a solution having a concentration of 5 mg/ml, which was then diluted with water to a predetermined concentration for use.
Then, 50 μl of the test solution and 50 μl of the sample solution were mixed, and the mixture was incubated at 37° C. for 60 minutes. Then, 50 μl of the incubated solution was sampled and soaked into a DEA filter paper. Then, this filter paper was washed with a 5% sodium monohydrogen phosphate solution and then with water and ethanol, followed by drying. The radioactivity contained in the captured fraction was measured by means of a scintillation counter. Then, the inhibition rate (%) of the sample Compound 3 was calculated from the radioactivity of the test sample group and that of the control group.

In assay [2] the test system is helpes simplex virus (1-type, KOS strain). As to the kind of experiment: plaque-reduction evaluation method in Verocells. Type of assay: cell-based. To be noted: drug added one hour after infection, counted three days later. The method, then: The antiviral activities were evaluated by a plaque-reduction evaluation method. Verocells were inoculated to a plastic Petri dish and then proliferated until they formed a monolayer. To each Petri dish, a predetermined number of plaque-forming units (about 100 to 500) of helpes simplex virus (1-type, KOS strain) were infected. Compound 3 was dissolved in 2% of bovine fetus serum inactivated by heating and adjusted to a predetermined concentration. One hour after the infection, the drug solution was added to the cultivation Petri dish (8 ml/Petri dish). Three days later, the cultivation Petri dish was fixed by formalin and dyed with Crystal Violet, whereupon the number of plaques was counted.

Take `O=C(NC(=O)c1ccccc1[N+](=O)[O-])Nc1ccc(Oc2ncc(Br)cn2)c(Cl)c1` [Compound 3]: the “Inhibition rate (%)” value in assay [1] (1.25 μg/ml) is recorded as 6%; in assay [1] (2.5 μg/ml), 11%; in assay [1] (5 μg/ml), 34%; in assay [1] (10 μg/ml), 57%. The Number of plaques in assay [2] (1 μg/ml) turned out to be 264.5; in assay [2] (2.5 μg/ml), 122.0; in assay [2] (5 μg/ml), 27.5. Further, the inhibition at 1 µg/mL in assay [2] (1 μg/ml) was determined as 45.1%. Besides, in assay [2] (2.5 μg/ml), the inhibition at 2.5 µg/mL came out at 74.7%. For the same compound, the inhibition at 5 µg/mL in assay [2] (5 μg/ml) is 94.3%.
